Test results taken from patent US9718796B2, “Substituted benzoazepines as toll-like receptor modulators” (VENTIRX PHARMACEUTICALS, INC., priority 2011, dated 2017).
Read-outs that look alike come from different tables or passages of the source.

Columns and labels:
[1] = test system: IL-8 production in human PBMC stimulated with CL075; assay: Human PBMC assay: inhibition of IL-8 production stimulated with CL075 (ELISA); assay type: cell-based; settings: 3 to 1000 nM antagonist, 2 hours before CL075 100 ng/ML (400 nM), overnight; one donor, duplicate wells
Procedure: PBMCs contain a mixture of cells including monocytes and myeloid dendritic cells (mDCs) that express TLR8. […] The ability of TLR8 antagonists to inhibit […] in human PBMCs was evaluated. […] Data shown in FIG. 1 are a representative experiment from one donor evaluated in duplicate culture wells. […] At the end of the incubation, cells were centrifuged and cell culture supernatants were analyzed for IL-8 by ELISA (eBiosciene kit) per the manufacturer's instructions.
The experiment shown in FIG. 1 was repeated in multiple donors and with additional TLR8 antagonist molecules (see FIG. 2). […] Percent inhibition is shown on the y-axis and concentrations of TLR8 antagonists (3-1000 nM) are shown on the x-axis in FIG. 2.

hTLR8 = biological target: T1, hTLR8 (Homo sapiens, UniProt Q9NR97); assay: HEK-293 hTLR8 transfectant antagonist assay (NF-κB driven SEAP reporter); assay type: cell-based; settings: hTLR8 reporter cells
T1 construct: host or cells: HEK293 cells stably transfected with hTLR8
T1 sequence (Q9NR97 27-1041): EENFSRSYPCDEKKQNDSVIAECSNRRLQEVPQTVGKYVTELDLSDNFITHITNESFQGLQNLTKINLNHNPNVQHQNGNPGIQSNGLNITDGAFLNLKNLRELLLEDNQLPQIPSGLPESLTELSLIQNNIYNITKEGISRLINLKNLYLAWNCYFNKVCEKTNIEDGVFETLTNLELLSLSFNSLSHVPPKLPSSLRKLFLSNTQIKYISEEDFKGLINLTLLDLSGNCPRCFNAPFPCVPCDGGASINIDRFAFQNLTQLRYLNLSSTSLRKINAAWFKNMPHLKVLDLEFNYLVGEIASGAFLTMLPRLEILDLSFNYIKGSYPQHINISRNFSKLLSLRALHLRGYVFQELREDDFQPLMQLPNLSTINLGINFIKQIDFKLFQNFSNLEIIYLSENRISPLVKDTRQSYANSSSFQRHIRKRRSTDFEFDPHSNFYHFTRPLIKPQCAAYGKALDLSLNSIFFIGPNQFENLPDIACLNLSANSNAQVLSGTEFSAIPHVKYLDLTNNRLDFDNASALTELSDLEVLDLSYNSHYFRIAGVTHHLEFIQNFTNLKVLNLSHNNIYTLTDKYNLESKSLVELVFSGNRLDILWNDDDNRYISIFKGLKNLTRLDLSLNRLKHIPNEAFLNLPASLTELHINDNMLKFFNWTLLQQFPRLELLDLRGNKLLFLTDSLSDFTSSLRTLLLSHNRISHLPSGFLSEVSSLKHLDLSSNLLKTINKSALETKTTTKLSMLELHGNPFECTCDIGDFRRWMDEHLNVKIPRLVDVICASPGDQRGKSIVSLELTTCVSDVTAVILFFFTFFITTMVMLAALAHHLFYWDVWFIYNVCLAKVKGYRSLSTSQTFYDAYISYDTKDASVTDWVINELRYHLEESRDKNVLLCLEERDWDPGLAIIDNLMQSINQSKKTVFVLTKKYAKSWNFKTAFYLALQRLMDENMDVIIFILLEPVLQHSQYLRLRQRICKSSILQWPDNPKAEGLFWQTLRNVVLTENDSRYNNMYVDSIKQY
Procedure: The HEK-293 hTLR transfectant assay employs HEK293 cells stably transfected with various hTLRs and transiently co-transfected with a plasmid containing an NF-κB driven secreted embryonic alkaline phosphate (SEAP) reporter gene. Stimulation of TLRs activates their downstream signaling pathways and induces nuclear translocation of the transcription factor NF-κB. Reporter gene activity is then measured using a spectrophotometric assay. To measure antagonist activity, human embryonic kidney (HEK) cells (e.g., 293XL-hTLR8 cells available from InvivoGen, San Diego, Calif.) are prepared according to supplier's instructions and incubated with various concentrations of test compound overnight. The amount of induced […] is measured by reading the absorbance at 650 nm. The compounds of the invention have an MC50 of 25 μM or less, wherein MC50 is defined as the concentration at which 50% of maximum induction is seen. For the TLR8 antagonist assays, cells are transiently transfected with the reporter gene on Day 1 per the supplier's instructions. Antagonist compounds are added to the cultures on Day 2 followed by addition of a TLR8 agonist approximately 2 hours later. Cultures are incubated overnight and SEAP activity is measured on Day 3. In a typical assay, 50,000 HEK239 hTLR8 cells are seeded per culture well and transiently transfected with the SEAP reporter gene. Antagonists are added to cultures in culture medium and […] DMSO over a concentration range of 0.1 nanomolar to 10 micromolar. TLR8 agonists are added to cultures 2 hours later at a fixed concentration (e.g., 1 micromolar or 10 micromolar of Compound A) and cultures are then incubated for 16-24 hrs at 37° C. in a humidified CO incubator. Antagonists are also evaluated for activity in the absence of agonist. TLR8 antagonist activity was measured in a hTLR8 assay format, measuring IC50 values. […] IC50s were then calculated.

[2] = IC50, nM, vs. 3M002 1 μM, agonist 3M002 1 μM
[3] = IC50, nM, vs. 3M002 10 μM, agonist 3M002 10 μM
[4] = IC50, nM, vs. VTX-378 1 μM, TLR8 agonist VTX-378 (Compound A) 1 μM
[5] = TLR8 agonist VTX-378 (Compound A) 0.5 μM, read-out: IC50, nM, vs. VTX-378 0.5 μM
[6] = IC50, nM, vs. VTX-378 10 μM, TLR8 agonist VTX-378 (Compound A) 10 μM

| IC50 (hTLR8; [2]) [nM] | IC50 (hTLR8; [3]) [nM] | IC50 (hTLR8; [4]) [nM] | IC50 (hTLR8; [5]) [nM] | IC50 (hTLR8; [6]) [nM] | SMILES | IL-8 levels in human PBMC stimulated with CL075 (FIG. 1) [1] |
| --- | --- | --- | --- | --- | --- | --- |
|  |  |  |  |  | CCCN(CCC)C(=O)C1=Cc2cc(-c3ccc(C(=O)N4CCCC4)cc3)ccc2N=C(N)C1 [Compound 2987, 2-Amino-N,N-dipropyl-7-[4-(pyrrolidin-1-ylcarbonyl)phenyl]-3H-1-benzazepine-4-carboxamide] | reduced in a dose dependent fashion |
| < 1000 | 1000 to 10000 | 1000 to 10000 | 1000 to 10000 |  | CCOC(=O)C1=Cc2cc(-c3ccc(C)cc3)ccc2N=C(N)C1 [Compound 3272, Ethyl 2-amino-7-(4-methylphenyl)-3H-1-benzazepine-4-carboxylate] |  |
|  |  | 1000 to 10000 |  | ≥ 10000 | CCOC(=O)C1=Cc2cc(-c3ccc(S(=O)(=O)N(C)C)cc3)ccc2N=C(N)C1 [Compound 3055, Ethyl 2-amino-7-{4-[(dimethylamino)sulfonyl]phenyl}-3H-1-benzazepine-4-carboxylate] |  |
|  | 1000 to 10000 | 1000 to 10000 | 1000 to 10000 |  | CCOC(=O)C1=Cc2cc(-c3cccc(OC)c3)ccc2N=C(N)C1 [Compound 3267, Ethyl 2-amino-7-(3-methoxyphenyl)-3H-1-benzazepine-4-carboxylate] |  |
|  |  | 1000 to 10000 | < 1000 |  | CCOC(=O)C1=Cc2cc(-c3ccccc3C(C)C)ccc2N=C(N)C1 [Compound 3141, Ethyl 2-amino-7-(2-isopropylphenyl)-3H-1-benzazepine-4-carboxylate] |  |
|  |  | < 1000 | < 1000 |  | CCOC(=O)C1=Cc2cc(-c3cccc(OC)c3Cl)ccc2N=C(N)C1 [Compound 3386, Ethyl 2-amino-7-(2-chloro-3-methoxyphenyl)-3H-1-benzazepine-4-carboxylate] |  |
|  | ≥ 10000 | 1000 to 10000 |  | ≥ 10000 | CCOC(=O)C1=Cc2cc(-c3cccc(C(F)(F)F)c3)ccc2N=C(N)C1 [Compound 3059, Ethyl 2-amino-7-[3-(trifluoromethyl)phenyl]-3H-1-benzazepine-4-carboxylate] |  |
|  |  | 1000 to 10000 | 1000 to 10000 | ≥ 10000 | CCOC(=O)C1=Cc2cc(-c3ccc(C(=O)N4CCCC4)cc3)ccc2N=C(NCCO)C1 [Compound 2968] |  |
|  |  | 1000 to 10000 | 1000 to 10000 |  | CCOC(=O)C1=Cc2cc(-c3c(C)cccc3C)ccc2N=C(N)C1 [Compound 3162] |  |
|  | < 1000 | < 1000 | < 1000 |  | CCOC(=O)C1=Cc2cc(-c3ccc(C(=O)N4CCCC4)cc3Cl)ccc2N=C(N)C1 [Compound 3322] |  |
|  |  | ≥ 10000 |  | ≥ 10000 | CCOC(=O)C1=Cc2cc(-c3ccc(C(=O)N4CCCC4)cc3)ccc2N=C(NOC)C1 [Compound 2930] |  |
|  | 1000 to 10000 | ≥ 10000 | 1000 to 10000 |  | CCOC(=O)C1=Cc2cc(-c3ccc(OC)cc3)ccc2N=C(N)C1 [Compound 3098, Ethyl 2-amino-7-(4-methoxyphenyl)-3H-1-benzazepine-4-carboxylate] |  |
| < 1000 | 1000 to 10000 | < 1000 | < 1000 |  | CCOC(=O)C1=Cc2cc(-c3ccccc3Cl)ccc2N=C(N)C1 [Compound 3127, Ethyl 2-amino-7-(2-chlorophenyl)-3H-1-benzazepine-4-carboxylate] |  |
|  |  | ≥ 10000 | 1000 to 10000 |  | CCOC(=O)C1=Cc2cc(-c3cccc(Cl)c3Cl)ccc2N=C(N)C1 [Compound 3155, Ethyl 2-amino-7-(2,3-dichlorophenyl)-3H-1-benzazepine-4-carboxylate] |  |
|  |  | 1000 to 10000 | 1000 to 10000 |  | CCOC(=O)C1=Cc2cc(-c3cccc(C)c3Cl)ccc2N=C(N)C1 [Compound 3294, Ethyl 2-amino-7-(2-chloro-3-methylphenyl)-3H-1-benzazepine-4-carboxylate] |  |
|  |  | < 1000 |  | < 1000 | CCOC(=O)C1=Cc2cc(C3=CCN(C(=O)OCC)CC3)ccc2N=C(N)C1 [Compound 3202] |  |
|  | 1000 to 10000 | 1000 to 10000 | < 1000 |  | CCOC(=O)C1=Cc2cc(Nc3ccccc3)ccc2N=C(N)C1 [Compound 3097] |  |
| < 1000 | 1000 to 10000 | 1000 to 10000 | < 1000 |  | CCCN(CC(N)=O)C(=O)C1=Cc2cc(-c3ccc(NC(=O)OCC)cc3Cl)ccc2N=C(N)C1 [Compound 3336, Ethyl (4-{2-amino-4-[(2-amino-2-oxoethyl)(propyl)carbamoyl)-3H-1-benzazepin-7-yl}-3-chlorophenyl)carbamate] |  |
|  |  | 1000 to 10000 | < 1000 |  | CCOC(=O)C1=Cc2cc(-c3ccc(N4CCCC4=O)cc3)ccc2N=C(N)C1 [Compound 3190, Ethyl 2-amino-7-[4-(2-oxopyrrolidin-1-yl)phenyl]-3H-1-benzazepine-4-carboxylate] |  |
|  |  | 1000 to 10000 |  | ≥ 10000 | CCOC(=O)C1=Cc2cc(-c3ccccc3C)ccc2N=C(N)C1 [Compound 3096, Ethyl 2-amino-7-(2-methylphenyl)-3H-1-benzazepine-4-carboxylate] |  |
|  | < 1000 | < 1000 | < 1000 |  | CCCN(CC(N)=O)C(=O)C1=Cc2cc(-c3ccc(C(=O)N4CCCC4)cc3Cl)ccc2N=C(N)C1 [Compound 3342, 2-Amino-N-(2-amino-2-oxoethyl)-7-[2-chloro-4-(pyrrolidin-1-ylcarbonyl)phenyl]-N-propyl-3H-1-benzazepine-4-carboxamide] |  |
|  |  |  |  |  | CCOC(=O)C1=Cc2cc(-c3ccc(C(=O)N4CCCC4)cc3)ccc2N=C(N)C1(C)C [Compound 3348, Ethyl 2-amino-3,3-dimethyl-7-[4-(pyrrolidin-1-ylcarbonyl)phenyl]-3H-1-benzazepine-4-carboxylate] | reduced in a dose dependent fashion |
|  |  | < 1000 | < 1000 |  | CCOC(=O)Nc1ccc(-c2ccc3c(c2)C=C(C(=O)OCC)CC(N)=N3)cc1 [Compound 3199, Ethyl 2-amino-7-{4-[(ethoxycarbonyl)amino]phenyl}-3H-1-benzazepine-4-carboxylate] |  |
|  |  | 1000 to 10000 |  | ≥ 10000 | CC(C)NC(=O)C1=Cc2cc(-c3ccc(C(=O)N4CCCC4)cc3)ccc2N=C(N)C1 [Compound 3009, 2-Amino-N-isopropyl-7-[4-(pyrrolidin-1-ylcarbonyl)phenyl]-3H-1-benzazepine-4-carboxamide] |  |
|  |  | 1000 to 10000 |  | ≥ 10000 | CCOC(=O)C1=Cc2cc(Oc3ccccc3)ccc2N=C(N)C1 [Compound 2946] |  |
